These results are taken from PubChem BioAssay AID849 (SRMLSC, 2007).

The structures appear in SMILES notation. The source made the active and inactive calls. The rule behind the calls is not given here.

For the assay, the system named is Saccharomyces cerevisiae lifespan shortening, growth inhibition. Put plainly: Saccharomyces cerevisiae growth inhibition potency – dose response (AID 849).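 Note: yeast growth read as optical density after two days at 30 degrees C.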

Take `NNC(=O)c1cccc(COc2ccc(Br)cc2)c1`: the IC50 was 41.9 µM.
As for `CC1(C)C[C@H]2C=C(C=O)[C@]3(C=O)C[C@]3(C)[C@H]2C1`, the figure is 5.25 µM.
Consider `Cc1cc2sc(C(=O)O)c(C)c2s1`, for which the IC50 is 41.6 µM.
Take `NC(=O)c1sc2nc(-c3ccco3)ccc2c1N`: the IC50 was > 100 µM (inactive).
Consider `O=C1OCC(CO)(CO)N=C1NNc1cc(Cl)ccc1Cl`, for which the IC50 was 16.2 µM.
In the case of `O=[N+]([O-])c1cccc(/C=N/n2cnnc2)c1O`, the IC50 was 19.7 µM.
As for `C/C(=N\Nc1nc2c(s1)CCCC2)c1ccccc1`, the figure is 31.9 µM; as for `Oc1ccc(/C=N/N=C(c2ccccc2)c2ccccc2)c(O)c1O`, 23.7 µM; as for `Cc1ccc2c(c1)C(=NC1CCCCC1)c1cc3ccccc3nc1-2`, 41.3 µM.
`Cc1ccc(-c2cc(-c3ccccc3Cl)[nH]n2)c(O)c1`: the IC50 was 51.1 µM.
As for `O=C(CSc1cccc[n+]1[O-])c1cc2ccccc2o1`, the IC50 is 2.97 µM.
Take `CCOc1ccc(N/N=C(/C#N)C(N)=O)cc1`: the IC50 is 7.82 µM.
For `CCOC(=O)c1c(/N=C/c2cccc([N+](=O)[O-])c2O)sc(C)c1C`, the IC50 was 18.5 µM.
As for `COc1ccc(-c2n[nH]c(C(F)(F)F)c2-c2cc3ccccc3o2)c(O)c1`, the figure is 26.1 µM; as for `c1ccc(-c2ccc(-c3ccccn3)nn2)nc1`, 49.3 µM; as for `COc1ccc2c(c1)S/C(=C\C(=O)c1ccncc1)N2C`, 5.32 µM.
As for `O=C(/C=C/N1CCOCC1)c1ccc(-c2ccccc2)cc1`, the figure is 11.5 µM; as for `CC(C)(C)c1nnc(N/N=C/c2cc(Br)ccc2O)n(N)c1=O`, 50 µM.
As for `COc1ccccc1-c1nnc(NC(=O)C(C)SC2=NCCS2)s1` (stereo not given), the figure is > 100 µM (inactive); as for `CCCCS(=O)(=O)/C=C\C=C/S(=O)(=O)CCCC`, > 100 µM (inactive); as for `CCC(C)NC(=O)CS(=O)Cc1nc(-c2ccccc2C)oc1C` (stereo not given), > 100 µM (inactive).
`N#CCSc1nc2ccccc2c2nc3ccccc3n12`: the IC50 was 29.3 µM.
As to `O=c1c(-c2ccccc2)nc(-c2ccccc2)cn1O`, the IC50 is 15.1 µM.
As for `CC1/C(=N/O)CC(c2ccccc2)N(C)C1c1ccccc1` (stereo not given), the figure is > 100 µM (inactive).
As to `CNC(=O)Oc1cccc(-c2cn3cc(OC(=O)NC)ccc3n2)c1`, the half-maximal inhibitory concentration (IC50) is 10.3 µM.
As for `Cc1cc([N+](=O)[O-])ccc1-c1ccc(C2Nc3ccccc3C(=O)N2O)o1` (stereo not given), the figure is > 100 µM (inactive); as for `C=CCSC(=C(C#N)C#N)c1cc2c([nH]1)CCCC2`, > 100 µM (inactive); as for `CC(N=Cc1cccc(O)c1O)c1ccccc1` (stereo not given), 9.02 µM.
On to `Oc1ccc(Cl)cc1Cc1cc(Cl)ccc1O`, for which the IC50 was 21 µM.
In the case of `O=C1CCCC/C1=N\Nc1ccc(OCc2ccccc2)cc1`, the IC50 was 13.3 µM.
As for `Oc1cccc(C=NCc2ccccc2)c1O`, the figure is 9.17 µM; as for `Oc1c(CN2CCc3ccccc3C2)cc(Cl)c2cccnc12`, 16 µM; as for `COc1cc(/C=C2/C(=O)ON=C2c2ccccc2)ccc1O`, 8.49 µM.
As for `O=C(O)c1ccc(N(c2ccccc2)c2ccccc2)cc1`, the figure is > 100 µM (inactive); as for `CC(=O)N1c2ccccc2C2(O)N=C(C)SC12` (stereo not given), > 100 µM (inactive); as for `Cc1ccc(C(C[N+](=O)[O-])n2nc(C)cc2C)cc1` (stereo not given), 19.1 µM.
As for `Cc1nn(-c2ccccc2)c2sc(-c3n[nH]c(=S)o3)cc12`, the figure is > 100 µM (inactive); as for `Cc1cc(C(=O)COC(=O)c2ccc[nH]c2=O)c(C)n1-c1ccccc1`, 21.3 µM.
Take `CCCCCC/C(C)=C1/SC(=S)NC1=O`: the IC50 is > 100 µM (inactive).
In the case of `Cc1ccc(/C=C2\C(=O)Nc3ccccc32)o1`, the IC50 is > 100 µM (inactive).
As to `CCCc1cc(-c2n[nH]c(=S)n2C(C)c2ccccc2)cs1` (stereo not given), the IC50 is > 100 µM (inactive).
With `O=c1cccc2n1Cc1cc3ccccc3nc1-2`, the IC50 was 29.8 µM.
Take `Cc1oc(-c2cccs2)nc1CS(=O)CC(=O)NC1CCCCCC1` (stereo not given): the IC50 was > 100 µM (inactive).
Consider `COc1cccc(CC(=O)Nc2ccc3nc(C)sc3c2)c1`, for which the IC50 was 35 µM.
As for `C=CCn1c(C)cc(C(=O)CSc2nnc(NCc3ccccc3)s2)c1C`, the figure is > 100 µM (inactive).
For `CC(NC(=O)Nc1ccc(Cl)cc1)C(c1cccs1)N1CCOCC1` (stereo not given), the IC50 was > 100 µM (inactive).
Consider `CCn1c2ccc(C)cc2c2nc3cc(C(=O)O)ccc3nc21`, for which the IC50 is 9.6 µM.
With `OCc1ccc(O)c2ncccc12`, the IC50 is 32.2 µM.
Take `Clc1ccc2nnnc(-c3ccccc3)c2c1`: the IC50 is 38.8 µM.
For the molecule `CCCCOC(=O)n1c(=S)oc2cc(Cl)ccc21`, the IC50 was 16.5 µM.
As for `O=S(=O)(NC1CC2CCC1C2)c1ccc(Br)s1` (stereo not given), the figure is 2.07 µM; as for `Cc1ccc2nc(/C(C#N)=C\c3ccc([N+](=O)[O-])o3)[nH]c2c1`, 18.9 µM.
For the molecule `COc1ccc(-c2[nH]ncc2-c2ccc(Cl)cc2)c(O)c1`, the IC50 is > 100 µM (inactive).
For `OCCN(CCO)CC(O)COc1ccc(C23CC4CC(CC(C4)C2)C3)cc1` (stereo not given), the IC50 was 35.7 µM.
For `CC1=C(C)/C(=N\OS(=O)(=O)c2ccc(C)cc2)C=CC1=O`, the IC50 is 12.5 µM.
As for `O=S(=O)(Nc1ccc(-c2nc3ccccc3o2)cc1)c1ccccc1`, the figure is > 100 µM (inactive); as for `Cc1nc(Cl)c2oc3ccccc3c2n1`, > 100 µM (inactive).
Turning to `Cc1ccc(-c2nc3sc(C(N)=O)c(N)c3c3c2CCCC3)cc1`, the IC50 is > 100 µM (inactive).
Consider `Cc1cccc(OCCCOc2cccc3cccnc23)c1C`, for which the IC50 is 26.5 µM.
As for `Cc1ccc(N/N=C/c2cccnc2)cc1`, the figure is 39.6 µM; as for `Oc1c(Cl)cc(Cl)c(Cl)c1Cc1c(O)c(Cl)cc(Cl)c1Cl`, > 100 µM (inactive).
As for `CC(C)(C)c1ccc(C(=O)NC(=S)NNC(=O)c2cccs2)cc1`, the figure is 42.2 µM; as for `CCOC(=O)C1=Nc2ccccc2C1=[N+]=[N-]`, 5.58 µM.
As for `CCN1CCN(c2ncnc3c2sc(=S)n3-c2ccccc2)CC1`, the figure is > 100 µM (inactive); as for `O=C(Nc1ccc(Cl)cc1)ON=C1CCCC1`, 3.69 µM.
For the molecule `CC1CCC2(CC1)NC(=S)N(c1ccccc1)N2` (stereo not given), the IC50 was 23.6 µM.
Regarding `O=C(N/N=C1\CC2CC=CC12)c1ccc(COc2ccccc2)cc1` (stereo not given), the IC50 is > 100 µM (inactive).
With `Cc1ccc(OC(=S)Nc2ccc(O)cc2)cc1`, the IC50 is 14 µM.
Regarding `COc1ccccc1OCCCc1c(C)n[nH]c1C`, the IC50 is 8.78 µM.
As for `CC(C)(C)c1cc(NCCCn2ccnc2)n2ncc(-c3ccc(Cl)cc3)c2n1`, the figure is > 100 µM (inactive).
Take `O=C(c1ccc(C(=O)N2CCCc3ccccc32)s1)N1CCCc2ccccc21`: the IC50 was 35.6 µM.
Regarding `NC(=O)c1ccc(N=Cc2ccc([N+](=O)[O-])s2)cc1`, the IC50 is 7.91 µM.
In the case of `Oc1ccccc1NCC(O)Cn1ccc2ccccc21` (stereo not given), the IC50 is > 100 µM (inactive).
As to `O=C(OCn1ncc(Cl)c(Cl)c1=O)c1ccc(F)cc1`, the IC50 is > 100 µM (inactive).
As for `c1ccc(-c2csc3nnc(SCc4ccc5c(c4)OCO5)n23)cc1`, the figure is > 100 µM (inactive).
For `CCCCCCCCCCCCCCCC(O)C(N)CO` (stereo not given), the IC50 was 33.4 µM.
On to `CCc1ccc2c(c1)C1(NN=C(c3cccc4ccccc34)S1)C(=O)N2` (stereo not given), for which the IC50 is 41.3 µM.
`Cc1cc(C(=O)COC(=O)c2ccc[nH]c2=O)c(C)n1-c1ccc(F)cc1`: the IC50 was 43 µM.
`CC(Oc1ccc(Cl)cc1Cl)C(=O)NC1=NN(c2ccccc2)C(=O)C1` (stereo not given): the IC50 is 9.36 µM.
As for `Cc1nn(-c2ccccc2)c2sc(C(=O)O)cc12`, the IC50 was 47.2 µM.
As to `CCn1c2ccccc2c2cc(Nc3cc(C)nc4ncnn34)ccc21`, the IC50 is > 100 µM (inactive).
With `Cc1ccc(Nc2cc(C)nn2-c2nc(C)cc(=O)[nH]2)cc1`, the IC50 was 1.18 µM.
With `CCN1/C(=C/C=C/C=C/c2sc3ccccc3[n+]2CC)Sc2ccccc21`, the IC50 is 21.3 µM.
Turning to `CCCCCC1CCC(C(=O)O)CC1` (stereo not given), the IC50 is > 100 µM (inactive).
Consider `C/C(=N\NC(=O)c1ccc(CSc2cccc3cccnc23)cc1)C1CCCCC1`, for which the IC50 was 33.8 µM.
On to `OC(Cn1cncn1)(c1ccccc1)c1ccccc1`, for which the IC50 was 13.9 µM.
With `CCc1ccc(S(=O)(=O)NCCc2cn3ccsc3n2)s1`, the IC50 is > 100 µM (inactive).
`c1ccc(N(c2ccccc2)c2nc(-n3ccnc3)nc(-n3ccnc3)n2)cc1`: the IC50 was > 100 µM (inactive).
As for `Cn1c2ccccc2c2cc(C(=O)O)ccc21`, the figure is 25.4 µM; as for `Cc1ccnn2cc3c(=O)n(C)c(=O)n(C)c3c12`, 23.2 µM; as for `Oc1ccc(CN2CCCCC2)c2cccnc12`, 46.4 µM.
As for `O=S(=O)(Nc1ccc(-c2csc(-c3ccccc3)n2)cc1)c1ccc(F)cc1`, the figure is > 100 µM (inactive).
As for `Cc1cc(C)c2c(N=NN3CCOCC3)[nH]nc2n1`, the figure is 19.9 µM; as for `CC(C)(C)C(O)C(Oc1ccc(Cl)cc1)n1cncn1` (stereo not given), 3.14 µM.
Turning to `CCOC(=O)c1c(N)sc(C(O)(C(F)(F)F)C(F)(F)F)c1-c1ccc(F)cc1`, the IC50 is > 100 µM (inactive).
On to `Cc1cccc(N=Nc2ccc(O)c3ncccc23)c1`, for which the IC50 was 34.8 µM.
Consider `CCOC(=O)/C(=N\Nc1cccc(C(F)(F)F)c1)N(CCOC)CCOC`, for which the IC50 was > 100 µM (inactive).
As for `CC1(C)Cc2c(C#N)c(N)sc(=S)c2CO1`, the figure is > 100 µM (inactive); as for `CCOc1ccc(/C=C/C(=O)c2cc(Br)ccc(=O)c2O)cc1`, 11.5 µM; as for `Cc1ccc(N2CCOCC2)c2c1C(=O)c1ccccc1C2=O`, 9.55 µM.
For `CCOC(=O)c1ccc(-n2[nH]c(-c3ccccc3)cc2=O)cc1`, the IC50 is 17.1 µM.
`Cc1ccc2c(c1)-c1nc3ccccc3cc1C2=NC1CCCCC1`: the IC50 is 35.6 µM.
With `CCCn1c(Nc2nc3ccccc3n2C)nc2ccccc21`, the IC50 was 43.3 µM.
As for `CN1CCN(Cc2cc(COCc3ccccc3)c3cccnc3c2O)CC1`, the figure is 26 µM; as for `Cc1cc(C)cc(N=Cc2ccc([N+](=O)[O-])s2)c1`, 13.1 µM.
